ChEMBL document CHEMBL4665851, “Design, synthesis, antimycobacterial activity and molecular docking studies of novel 3- (N-substituted glycinamido) benzoic acid analogues as anti tubercular agents” (Bioorg Med Chem Lett, 2020)
Converted amounts (≈) assume the structure as drawn.

Legend:
Conditions in all cases: time 5.0 day
[1] = tested on: Mycobacterium tuberculosis H37Rv; experiment: Potency index, ratio of ciprofloxacin MIC to test compound MIC for Inhibition of MmA1-mediated antitubercular activity against Mycobacterium tuberculosis H37Rv incubated for 5 days by MABA assay
[2] = tested on: Mycobacterium tuberculosis H37Rv; experiment: Potency index, ratio of streptomycin MIC to test compound MIC for Inhibition of MmA1-mediated antitubercular activity against Mycobacterium tuberculosis H37Rv incubated for 5 days by MABA assay
[3] = tested on: Mycobacterium tuberculosis H37Rv; experiment: Inhibition of MmA1 in Mycobacterium tuberculosis H37Rv assessed as reduction in bacterial growth incubated for 5 days by MABA assay
[4] = tested on: Mycobacterium tuberculosis H37Rv; experiment: Potency index, ratio of pyrazinamide MIC to test compound MIC for Inhibition of MmA1-mediated antitubercular activity against Mycobacterium tuberculosis H37Rv incubated for 5 days by MABA assay

Compound | Ratio [1] | Ratio [2] | MIC [3] | Ratio [4]
O=C(CN1CCN(c2ccccc2)CC1)Nc1cccc(C(=O)O)c1 | > 2 | > 2 | 1.6 µg/mL (≈ 4.71 µM) | > 2
O=C(CN1CCCC1)Nc1cccc(C(=O)O)c1 | > 2 | > 2 | 1.6 µg/mL (≈ 6.44 µM) | > 2
O=C(Cn1ccnc1)Nc1cccc(C(=O)O)c1 | – | – | 12.5 µg/mL (≈ 51 µM) | –
NC(=O)c1cnccn1 | – | – | 3.12 µg/mL (≈ 25.3 µM) | –
O=C(CNc1ccc(Cl)cc1)Nc1cccc(C(=O)O)c1 | – | – | 6.25 µg/mL (≈ 20.5 µM) | –
O=C(CN1CCOCC1)Nc1cccc(C(=O)O)c1 | – | – | 25 µg/mL (≈ 94.6 µM) | –
CCN(CC)CC(=O)Nc1cccc(C(=O)O)c1 | – | – | 3.12 µg/mL (≈ 12.5 µM) | –
O=C(CN1CCN(Cc2ccccc2)CC1)Nc1cccc(C(=O)O)c1 | – | – | 3.12 µg/mL (≈ 8.83 µM) | –
O=C(CN1CCOCC1)Nc1cccc(C(=O)Nc2ccc3[nH]cnc(=O)c3c2)c1 | – | – | 100 µg/mL (≈ 245 µM) | –
CN[C@@H]1[C@H](O[C@H]2[C@H](O[C@H]3[C@H](O)[C@@H](O)[C@H](N=C(N)N)[C@@H](O)[C@@H]3N=C(N)N)O[C@@H](C)[C@]2(O)C=O)O[C@@H](CO)[C@H](O)[C@H]1O | – | – | 6.25 µg/mL (≈ 10.7 µM) | –
O=C(CNc1ccc(F)cc1F)Nc1cccc(C(=O)O)c1 | > 2 | > 2 | 1.6 µg/mL (≈ 5.22 µM) | > 2
O=C(CNc1ccccn1)Nc1cccc(C(=O)O)c1 | – | – | 12.5 µg/mL (≈ 46.1 µM) | –
Cc1ccc(NCC(=O)Nc2cccc(C(=O)O)c2)cc1 | – | – | 6.25 µg/mL (≈ 22 µM) | –
O=C(CN1CCCCC1)Nc1cccc(C(=O)O)c1 | > 2 | > 2 | 1.6 µg/mL (≈ 6.1 µM) | > 2
O=C(O)c1cn(C2CC2)c2cc(N3CCNCC3)c(F)cc2c1=O | – | – | 3.12 µg/mL (≈ 9.42 µM) | –
O=C(CNc1ccccc1)Nc1cccc(C(=O)O)c1 | – | – | 6.25 µg/mL (≈ 23.1 µM) | –
CN1CCN(CC(=O)Nc2cccc(C(=O)O)c2)CC1 | > 2 | > 2 | 1.6 µg/mL (≈ 5.77 µM) | > 2
O=C(CNc1ccc(Br)cc1)Nc1cccc(C(=O)O)c1 | – | – | 3.12 µg/mL (≈ 8.94 µM) | –
